Results from publication PMC9315981, “N-Phenacyldibromobenzimidazoles—Synthesis Optimization and Evaluation of Their Cytotoxic Activity” (Molecules, 2022).
Read-outs that look alike come from different tables or passages of the source.

How the values were obtained:
[1] = test system: MCF-7 (breast adenocarcinoma); design: method as in PMID 28340404; conditions: determined previously; read-out: EC50 ± SD, MCF-7; cited from earlier work
[2] = test system: CCRF-CEM (acute lymphoblastic leukemia); design: method as in PMID 28340404; conditions: determined previously; read-out: EC50 ± SD, CCRF-CEM; cited from earlier work
[3] = test system: A-549 (lung adenocarcinoma); assay: MTT-based viability assay, A-549; assay type: cell-based; conditions: Homo sapiens, A549, 48 h of treatment, read-out: EC50 ± SD, A-549
Method: (§1) To evaluate the cytotoxic activity of compounds 4a–j and 5a–5j, we performed an MTT test for three tumor cell lines, i.e.,: MCF-7 (breast adenocarcinoma), A-549 (lung adenocarcinoma), CCRF-CEM (acute lymphoblastic leukemia), and one normal cell line, MRC-5 (normal lung fibroblasts). The EC50 values, describing the half maximal effective concentration of each tested compound, were calculated and are summarized in Table 4. The representative sigmoidal dose–response curves are shown in Figure S2 (see Supporting Information S2).
(§2) CCRF-CEM (ECACC 85112105) human acute lymphoblastic leukaemia and MRC-5 pd30 Human fetal lung fibroblasts (ECACC 05090501) were purchased from European Collection of Authenticated Cell Cultures, whereas A-549 (ATCC CCL 185) human lung carcinoma and MCF-7 (ATCC HTB-22) human breast adenocarcinoma cell line were purchased from American Type Culture Collection. A-549 and MCF-7 cell lines were cultured in high glucose DMEM (Biowest) supplemented with 10% fetal bovine serum (Biowest), 2 mM L-glutamine and antibiotics (100 U/mL penicillin, 100 µg/mL streptomycin). CCRF-CEM were cultured in RPMI 1640 supplemented with 10% fetal bovine serum (EuroClone), 2 mM L-glutamine and antibiotics (100 U/mL penicillin, 100 µg/mL streptomycin). MRC-5 pd30 human fibroblasts (ECACC) were cultured in MEME, Minimum Essential Medium Eagle (Merck) supplemented with 10% fetal bovine serum (Merck), 2 mM l-glutamine, antibiotics (100 U mL^−1 penicillin, 100 μg mL^−1 streptomycin, Merck) and 1% non-essential amino-acids (Merck). Cells were grown in 75 cm^2 cell culture flasks (Sarstedt, Nümbrecht, Germany), in a humidified atmosphere of CO2/air (5/95%) at 37 °C. All the experiments were performed in exponentially growing cultures. Stock solution of tested compounds were prepared in DMSO and stored in −20 °C for maximum one month. For the cytotoxicity studies, stock solutions were diluted 200-fold with the proper culture medium to obtain the final concentrations. For cytotoxicity studies 2-fold serial dilutions of the tested compounds were prepared in the proper medium in the range from 3.125 µM to 200 µM.
(§3) After incubation with the test compounds, MTT test was performed as described previously. Optical densities were measured at 570 nm using BioTek microplate reader. All measurements were carried out in a minimum of three replicates.

[4] = test system: MRC-5 (normal lung fibroblasts); assay: MTT-based viability assay, MRC-5; assay type: cell-based; conditions: Homo sapiens, MRC5, 48 h of treatment, read-out: EC50 ± SD, MRC-5
Method: as §1, §2, §3

[5] = test system: MCF-7 (breast adenocarcinoma); assay: MTT-based viability assay, MCF-7; assay type: cell-based, human; conditions: for EC50: Homo sapiens, MCF7, MTT, 48 h of treatment, read-out: EC50 ± SD, MCF-7; for SI (selectivity index), MCF-7: SI = EC50 for normal MRC-5 line/EC50 for MCF-7
Method: as §1, §2, §3

[6] = test system: CCRF-CEM (acute lymphoblastic leukemia); assay: MTT-based viability assay, CCRF-CEM; assay type: cell-based, human; conditions: for EC50: Homo sapiens, CCRF-CEM, MTT, 48 h of treatment, read-out: EC50 ± SD, CCRF-CEM; for SI (selectivity index), CCRF-CEM: SI = EC50 for normal MRC-5 line/EC50 for CCRF-CEM
Method: as §1, §2, §3

[7] = Solubility in DMSO (stock preparation); assay type: physicochemical
From the text: However, among the tested compounds, the highest selectivity index was obtained for 5a (2.04) for MCF-7, respectively.

[8] = test system: CCRF-CEM cells; assay: Detection of apoptosis by flow cytometry (annexin V-FITC/PI); assay type: cell-based, human; conditions: 48 h; for induction of apoptosis: annexin V binding
Method: CCRF-CEM cells were seeded in 24-well plates at 2 × 10^5 cells/well and treated with the tested compounds used in 15 µM, 30 µM, and 45 µM concentrations. After exposure to the examined compounds, the cells were collected, centrifugated at 200× g at 4 °C for 5 min, washed twice with cold phosphate–buffered saline (PBS), and subsequently suspended in binding buffer. Subsequently, 100-μL aliquots of the cell suspension were labelled according to the kit manufacturer’s instructions. Briefly, annexin V-fluorescein isothiocyanate, and propidium iodide (BD Biosciences, Pharmingen, San Diego, CA, USA) were added to the cell suspension, and the mixture was vortexed and then incubated for 15 min at RT in the dark. A cold binding buffer (400 μL) was then added and the cells were vortexed again and kept on ice. Flow cytometric measurements were performed within 1 h after labeling. Viable, necrotic, early, and late apoptotic cells were detected by FACSCanto II flow cytometer (BD Biosciences, San Diego, CA, USA) and analysed using BD FACSDiva software.
Figure 2 Effect of compounds 4f, 5g, and 5j on the progression of apoptosis/necrosis in CCRF-CEM. Percentage of viable, early, and late apoptotic, and necrotic cells after 48 h of treatment with the tested compounds (A). Percentage of CCRF-CEM cells in late apoptosis (B). Cells were stained with annexin V-FITC and PI (propidium iodide). Flow cytometry analyses were run on FACSCanto II flow cytometer (BD Biosciences, San Diego, CA, USA) and analysed using BD FACSDiva software. Graphs represent mean values ± s.e.m. *** p < 0.001 relative to control; ns—not significant. Statistical analysis for three to six independent replicates was performed using a one-way ANOVA analysis (GraphPad Software Inc., San Diego, CA, USA).

Row | SMILES | EC50 [1] [µM] | EC50 [2] [µM] | EC50 [3] [µM] | EC50 [4] [µM] | EC50 [5] [µM] | SI (selectivity index), MCF-7 [5] | EC50 [6] [µM] | SI (selectivity index), CCRF-CEM [6] | solubility in DMSO [7] | induction of apoptosis ([8]; 45 µM) | cells in late apoptosis ([8]; 30 µM, annexin V-FITC/PI) [%] | percent of apoptotic cells ([8]; 45 µM, annexin V-FITC/PI) [%]
1 | Brc1c(Br)c(Br)c2[nH]cnc2c1Br [4,5,6,7-tetrabromo-1H-benzimidazole] | 23.6 ± 0.1 | 18.1 ± 0.6 | 36.4 ± 0.7 |  |  |  |  |  |  |  |  | 
2 | O=C(Cn1cnc2cc(Br)c(Br)cc21)c1ccccc1 [Compound 4a] |  |  | 111 ± 11.7 | 51.4 ± 1.62 | 37.6 ± 3.4 | 1.37 | 78.1 ± 5.58 | 0.66 |  |  |  | 
3 | O=C(Cn1cnc2cc(Br)c(Br)cc21)c1ccc(F)cc1 [Compound 4b] |  |  | 54.5 ± 1.58 | 56.1 ± 4.33 | 33 ± 2.63 | 1.70 | 44.1 ± 3.04 | 1.27 |  |  |  | 
4 | O=C(Cn1cnc2cc(Br)c(Br)cc21)c1ccc(Cl)cc1 [Compound 4c] |  |  | 76.6 ± 3.08 | 54.24 ± 0.52 | 49.1 ± 5.58 | 1.10 | 56.6 ± 4.48 | 0.96 |  |  |  | 
5 | O=C(Cn1cnc2cc(Br)c(Br)cc21)c1ccc(Br)cc1 [Compound 4d] |  |  |  |  |  |  |  |  | sparingly soluble in DMSO |  |  | 
6 | O=C(Cn1cnc2cc(Br)c(Br)cc21)c1ccc(Cl)cc1Cl [Compound 4e] |  |  | 67.98 ± 0.41 |  | 60.3 ± 6.2 | 0.95 | 61.1 ± 2.76 | 0.94 |  |  |  | 
7 | O=C(Cn1cnc2cc(Br)c(Br)cc21)c1ccc(Cl)c(Cl)c1 [Compound 4f, 2-(5,6-dibromo-1H-benzimidazol-1-yl)-1-(3,4-dichlorophenyl)ethanone] |  |  | 51.1 ± 2.78 | 48.5 ± 4.5 | 26.4 ± 0.8 | 1.84 | 27.5 ± 2.46 | 1.76 |  | induced apoptosis effectively |  | 
8 | O=C(Cn1cnc2cc(Br)c(Br)cc21)c1c(Cl)cc(Cl)cc1Cl [Compound 4g] |  |  | > 200 | 13.7 ± 0.63 | 36.1 ± 1.47 | 0.38 |  |  |  |  |  | 
9 | O=C(Cn1cnc2cc(Br)c(Br)cc21)c1ccc(F)cc1F [Compound 4h] |  |  | 54.1 ± 4.05 | 57.6 ± 0.71 | 41.2 ± 3.85 | 1.40 | 59.9 ± 4.4 | 0.96 |  |  |  | 
10 | O=C(Cn1cnc2cc(Br)c(Br)cc21)c1cc(F)ccc1F [Compound 4i] |  |  | 37.9 ± 1.72 | 47.8 ± 12 | 29.6 ± 2.24 | 1.61 | 102 ± 8.62 | 0.47 |  |  |  | 
11 | O=C(Cn1cnc2cc(Br)c(Br)cc21)c1c(F)cc(F)cc1F [Compound 4j] |  |  | 94.3 ± 6.47 | 48.8 ± 9.07 | 37.6 ± 3.58 | 1.30 | 40.7 ± 1.03 | 1.20 |  |  |  | 
12 | O=C(Cn1cnc2c(Br)cc(Br)cc21)c1ccccc1 [Compound 5a] |  |  | 81.2 ± 6.68 | 57.9 ± 0.88 | 28.4 ± 1.11 | 2.04 | 183 ± 7.84 | 0.32 |  |  |  | 
13 | O=C(Cn1cnc2c(Br)cc(Br)cc21)c1ccc(F)cc1 [Compound 5b] |  |  | 84.5 ± 3.09 | 49.2 ± 10.6 | 45.93 ± 0.36 | 1.07 |  |  |  |  |  | 
14 | O=C(Cn1cnc2c(Br)cc(Br)cc21)c1ccc(Cl)cc1 [Compound 5c] |  |  | 46.7 ± 1.2 | 39.1 ± 8.41 | 30.4 ± 2.31 | 1.29 | 42.5 ± 8.36 | 0.92 |  |  |  | 
15 | O=C(Cn1cnc2c(Br)cc(Br)cc21)c1ccc(Br)cc1 [Compound 5d, 1-(4-bromophenyl)-2-(4,6-dibromo-1H-benzimidazol-1-yl)ethanone] |  |  | 50.9 ± 2.84 | 45.1 ± 5.73 | 27.8 ± 2.61 | 1.62 | 50.5 ± 1.52 | 0.89 |  |  |  | 
16 | O=C(Cn1cnc2c(Br)cc(Br)cc21)c1ccc(Cl)cc1Cl [Compound 5e] |  |  | 46 ± 3.42 | 34.4 ± 7.83 | 27.4 ± 1.57 | 1.25 | 38.4 ± 1.39 | 0.89 |  |  |  | 
17 | O=C(Cn1cnc2c(Br)cc(Br)cc21)c1ccc(Cl)c(Cl)c1 [Compound 5f] |  |  | 40 ± 5.78 | 43.2 ± 12.1 | 32.8 ± 1.88 | 1.32 | 40.6 ± 2.39 | 1.06 |  |  |  | 
18 | O=C(Cn1cnc2c(Br)cc(Br)cc21)c1c(Cl)cc(Cl)cc1Cl [Compound 5g, 2-(4,6-dibromo-1H-benzimidazol-1-yl)-1-(2,4,6-trichlorophenyl)ethanone] |  |  | 41.3 ± 3.2 | 26.9 ± 1.62 | 24 ± 2.33 | 1.12 | 26.6 ± 0.31 | 1.01 |  | induced apoptosis effectively | 32 | 75.6
19 | O=C(Cn1cnc2c(Br)cc(Br)cc21)c1ccc(F)cc1F [Compound 5h] |  |  | 61.26 ± 0.45 |  | 37 ± 2.15 | 1.23 | 51.2 ± 1.06 | 0.89 |  |  |  | 
20 | O=C(Cn1cnc2c(Br)cc(Br)cc21)c1cc(F)ccc1F [Compound 5i] |  |  | 82.7 ± 10.6 | 48.07 ± 0.04 | 44.8 ± 6.33 | 1.07 | 46.2 ± 3.24 | 1.04 |  |  |  | 
21 | O=C(Cn1cnc2c(Br)cc(Br)cc21)c1c(F)cc(F)cc1F [Compound 5j, 2-(4,6-dibromo-1H-benzimidazol-1-yl)-1-(2,4,6-trifluorophenyl)ethanone] |  |  | 85.4 ± 3.16 | 61 ± 5.64 | 42.2 ± 3.95 | 1.45 | 34.4 ± 2.3 | 1.77 |  | induced apoptosis effectively |  | 
